# From patent publication US20230085307A1, “PYRIDAZINONE COMPOUND AND HERBICIDE” (NISSAN CHEMICAL CORPORATION, priority 2019, published 2023)
# Key:
# rice flat sedge = assay: Test Example 3: herbicidal effect by foliage application, Wagner pot (Table 18, symbol E); assay type: in vivo, rice flat sedge (Cyperus iria)
# How it was run: (§1)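 Plants were sown in alluvial soil held under 0.1–0.5 cm standing water and grown 14 days in a greenhouse at 25–30 °C. An emulsifiable formulation, water-diluted to the set dose, was then sprayed onto the foliage, and effects were scored three weeks later using previously defined criteria.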
# Italian ryegrass [1] = assay: Test Example 5: herbicidal effect by foliage application, plastic box (Table 20, symbol K); assay type: in vivo, Italian ryegrass (Lolium multiflorum); conditions: foliage application, 320 g/ha
# How it was run: (§2)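 Plants were sown into sterilized diluvial soil under about 1.5 cm cover and kept in a greenhouse at 25° C. to 30° C. Fourteen days on, foliage received an even spray of the diluted emulsion. Herbicidal or crop effect was judged three weeks afterwards.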
# southern crabgrass [2] = assay: Test Example 5: herbicidal effect by foliage application, plastic box (Table 20, symbol F); assay type: in vivo, southern crabgrass (Digitaria ciliaris); conditions: foliage application, 320 g/ha
# How it was run: as §2
# green foxtail [3] = assay: Test Example 5: herbicidal effect by foliage application, plastic box (Table 20, symbol G); assay type: in vivo, green foxtail (Setaria viridis); conditions: foliage application, 320 g/ha
# How it was run: as §2
# velvetleaf [4] = assay: Test Example 4: herbicidal effect by soil treatment (Table 19, symbol M); assay type: in vivo, velvetleaf (Abutilon theophrasti); conditions: amount of applied herbicide 320 g/ha
# How it was run: (§3)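 In this soil treatment, the formulated compound reached the seeds only through the soil: seeds were buried about 1.5 cm deep in sterilized diluvial soil, then the diluted emulsion was sprayed over the surface. After three weeks at 25° C. to 30° C. in a greenhouse, effects were graded on criteria from an earlier test.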
# barnyard grass [5] = assay: Test Example 4: herbicidal effect by soil treatment (Table 19, symbol H); assay type: in vivo, barnyard grass (Echinochloa crus-galli); conditions: amount of applied herbicide 320 g/ha
# How it was run: as §3
# false cleavers [6] = assay: Test Example 4: herbicidal effect by soil treatment (Table 19, symbol Q); assay type: in vivo, false cleavers (Galium spurium); conditions: amount of applied herbicide 320 g/ha
# How it was run: as §3
# Italian ryegrass [7] = assay: Test Example 4: herbicidal effect by soil treatment (Table 19, symbol K); assay type: in vivo, Italian ryegrass (Lolium multiflorum); conditions: amount of applied herbicide 320 g/ha
# How it was run: as §3
# green foxtail [8] = assay: Test Example 4: herbicidal effect by soil treatment (Table 19, symbol G); assay type: in vivo, green foxtail (Setaria viridis); conditions: amount of applied herbicide 320 g/ha
# How it was run: as §3
# redroot pigweed [9] = assay: Test Example 4: herbicidal effect by soil treatment (Table 19, symbol N); assay type: in vivo, redroot pigweed (Amaranthus retroflexus); conditions: amount of applied herbicide 320 g/ha
# How it was run: as §3
# windgrass [10] = assay: Test Example 4: herbicidal effect by soil treatment (Table 19, symbol L); assay type: in vivo, windgrass (Apera spica-venti); conditions: amount of applied herbicide 320 g/ha
# How it was run: as §3
# barnyard grass [11] = assay: Test Example 5: herbicidal effect by foliage application, plastic box (Table 20, symbol H); assay type: in vivo, barnyard grass (Echinochloa crus-galli); conditions: foliage application, 320 g/ha
# How it was run: as §2
# windgrass [12] = assay: Test Example 5: herbicidal effect by foliage application, plastic box (Table 20, symbol L); assay type: in vivo, windgrass (Apera spica-venti); conditions: foliage application, 320 g/ha
# How it was run: as §2
# false cleavers [13] = assay: Test Example 5: herbicidal effect by foliage application, plastic box (Table 20, symbol Q); assay type: in vivo, false cleavers (Galium spurium); conditions: foliage application, 320 g/ha
# How it was run: as §2
# blackgrass [14] = assay: Test Example 5: herbicidal effect by foliage application, plastic box (Table 20, symbol J); assay type: in vivo, blackgrass (Alopecurus myosuroides); conditions: foliage application, 320 g/ha
# How it was run: as §2
# blackgrass [15] = assay: Test Example 4: herbicidal effect by soil treatment (Table 19, symbol J); assay type: in vivo, blackgrass (Alopecurus myosuroides); conditions: amount of applied herbicide 320 g/ha
# How it was run: as §3
# chickweed [16] = assay: Test Example 5: herbicidal effect by foliage application, plastic box (Table 20, symbol P); assay type: in vivo, common chickweed (Stellaria media); conditions: foliage application, 320 g/ha
# How it was run: as §2
# lambsquarters [17] = assay: Test Example 4: herbicidal effect by soil treatment (Table 19, symbol O); assay type: in vivo, lambsquarters (Chenopodium album); conditions: amount of applied herbicide 320 g/ha
# How it was run: as §3
# persian speedwell [18] = assay: Test Example 5: herbicidal effect by foliage application, plastic box (Table 20, symbol R); assay type: in vivo, Persian speedwell (Veronica persica); conditions: foliage application, 320 g/ha
# How it was run: as §2
# chickweed [19] = assay: Test Example 4: herbicidal effect by soil treatment (Table 19, symbol P); assay type: in vivo, common chickweed (Stellaria media); conditions: amount of applied herbicide 320 g/ha
# How it was run: as §3
# Chinese sprangletop = assay: Test Example 3: herbicidal effect by foliage application, Wagner pot (Table 18, symbol D); assay type: in vivo, chinese sprangletop (Leptochloa chinensis)
# How it was run: as §1
# velvetleaf [20] = assay: Test Example 5: herbicidal effect by foliage application, plastic box (Table 20, symbol M); assay type: in vivo, velvetleaf (Abutilon theophrasti); conditions: foliage application, 320 g/ha
# How it was run: as §2
# lambsquarters [21] = assay: Test Example 5: herbicidal effect by foliage application, plastic box (Table 20, symbol O); assay type: in vivo, lambsquarters (Chenopodium album); conditions: foliage application, 320 g/ha
# How it was run: as §2
# barnyard grass [22] = assay: Test Example 3: herbicidal effect by foliage application, Wagner pot (Table 18, symbol H); assay type: in vivo, barnyard grass (Echinochloa crus-galli)
# How it was run: as §1
# redroot pigweed [23] = assay: Test Example 5: herbicidal effect by foliage application, plastic box (Table 20, symbol N); assay type: in vivo, redroot pigweed (Amaranthus retroflexus); conditions: foliage application, 320 g/ha
# How it was run: as §2
# southern crabgrass [24] = assay: Test Example 4: herbicidal effect by soil treatment (Table 19, symbol F); assay type: in vivo, southern crabgrass (Digitaria ciliaris); conditions: amount of applied herbicide 320 g/ha
# How it was run: as §3
# persian speedwell [25] = assay: Test Example 4: herbicidal effect by soil treatment (Table 19, symbol R); assay type: in vivo, Persian speedwell (Veronica persica); conditions: amount of applied herbicide 320 g/ha
# How it was run: as §3
# wild oat [26] = assay: Test Example 5: herbicidal effect by foliage application, plastic box (Table 20, symbol I); assay type: in vivo, wild oat (Avena fatua); conditions: foliage application, 320 g/ha
# How it was run: as §2
# wild oat [27] = assay: Test Example 4: herbicidal effect by soil treatment (Table 19, symbol I); assay type: in vivo, wild oat (Avena fatua); conditions: amount of applied herbicide 320 g/ha
# How it was run: as §3
# [28] = amount of applied herbicide 320 g/ha
# [29] = evaluated three weeks after application
smiles,measurement,setting,value
CCCCOc1ccccc1-c1sc2ccccc2c1-c1c(OC(=O)CCC)c(C)nn(C)c1=O [1-023],"herbicidal effect on E (rice flat sedge), rating 0-5",rice flat sedge; 320 g/ha,3 (Herbicidal rate of 40% or more and less than 70%)
same,"herbicidal effect grade, K: Italian ryegrass",Italian ryegrass [1]; three weeks after application,0 (Herbicidal rate of 5% or less (almost no effect))
same,"herbicidal effect grade, F: southern crabgrass",southern crabgrass [2]; three weeks after application,0 (Herbicidal rate of 5% or less (almost no effect))
same,"herbicidal effect grade, G: green foxtail",green foxtail [3]; three weeks after application,0 (Herbicidal rate of 5% or less (almost no effect))
same,"herbicidal effect rating, M: velvetleaf",velvetleaf [4],0 (Herbicidal rate of 5% or less (almost no effect))
same,"herbicidal effect rating, H: barnyard grass",barnyard grass [5],0 (Herbicidal rate of 5% or less (almost no effect))
same,"herbicidal effect rating, Q: false cleavers",false cleavers [6],0 (Herbicidal rate of 5% or less (almost no effect))
same,"herbicidal effect rating, K: Italian ryegrass",Italian ryegrass [7],0 (Herbicidal rate of 5% or less (almost no effect))
same,"herbicidal effect rating, G: green foxtail",green foxtail [8],2 (Herbicidal rate of 20% or more and less than 40%)
same,"herbicidal effect rating, N: redroot pigweed",redroot pigweed [9],0 (Herbicidal rate of 5% or less (almost no effect))
same,"herbicidal effect rating, L: windgrass",windgrass [10],0 (Herbicidal rate of 5% or less (almost no effect))
same,"herbicidal effect grade, H: barnyard grass",barnyard grass [11]; three weeks after application,0 (Herbicidal rate of 5% or less (almost no effect))
same,"herbicidal effect grade, L: windgrass",windgrass [12]; three weeks after application,0 (Herbicidal rate of 5% or less (almost no effect))
same,"herbicidal effect grade, Q: false cleavers",false cleavers [13]; three weeks after application,2 (Herbicidal rate of 20% or more and less than 40%)
same,"herbicidal effect grade, J: blackgrass",blackgrass [14]; three weeks after application,0 (Herbicidal rate of 5% or less (almost no effect))
same,"herbicidal effect rating, J: blackgrass",blackgrass [15],0 (Herbicidal rate of 5% or less (almost no effect))
same,"herbicidal effect grade, P: chickweed",chickweed [16]; three weeks after application,5 (Herbicidal rate of 90% or more (almost completely withered))
same,"herbicidal effect rating, O: lambsquarters",lambsquarters [17],0 (Herbicidal rate of 5% or less (almost no effect))
same,"herbicidal effect grade, R: persian speedwell",persian speedwell [18]; three weeks after application,3 (Herbicidal rate of 40% or more and less than 70%)
same,"herbicidal effect rating, P: chickweed",chickweed [19],0 (Herbicidal rate of 5% or less (almost no effect))
same,"herbicidal effect on D (Chinese sprangletop), rating 0-5",Chinese sprangletop; 320 g/ha,0 (Herbicidal rate of 5% or less (almost no effect))
same,"herbicidal effect grade, M: velvetleaf",velvetleaf [20]; three weeks after application,0 (Herbicidal rate of 5% or less (almost no effect))
same,"herbicidal effect grade, O: lambsquarters",lambsquarters [21]; three weeks after application,0 (Herbicidal rate of 5% or less (almost no effect))
same,"herbicidal effect on H (barnyard grass), rating 0-5",barnyard grass [22]; 320 g/ha,1 (Herbicidal rate of 5% or more and less than 20%)
same,"herbicidal effect grade, N: redroot pigweed",redroot pigweed [23]; three weeks after application,0 (Herbicidal rate of 5% or less (almost no effect))
same,"herbicidal effect rating, F: southern crabgrass",southern crabgrass [24],0 (Herbicidal rate of 5% or less (almost no effect))
same,"herbicidal effect rating, R: persian speedwell",persian speedwell [25],0 (Herbicidal rate of 5% or less (almost no effect))
same,"herbicidal effect grade, I: wild oat",wild oat [26]; three weeks after application,0 (Herbicidal rate of 5% or less (almost no effect))
same,"herbicidal effect rating, I: wild oat",wild oat [27],0 (Herbicidal rate of 5% or less (almost no effect))
CCCCOc1ccc(-c2sc3ccc(Cl)cc3c2-c2c(OC(=O)CCC)c(C)nn(C)c2=O)cc1 [2-110],herbicidal effect on E: rice flat sedge,rice flat sedge; [28],4 (Herbicidal rate of 70% or more and less than 90%)
same,herbicidal effect on K: Italian ryegrass,Italian ryegrass [1]; [29],0 (Herbicidal rate of 5% or less (almost no effect))
same,herbicidal effect on F: southern crabgrass,southern crabgrass [2]; [29],0 (Herbicidal rate of 5% or less (almost no effect))
same,herbicidal effect on G: green foxtail,green foxtail [3]; [29],0 (Herbicidal rate of 5% or less (almost no effect))
same,"M: velvetleaf, herbicidal effect rating",velvetleaf [4],0 (Herbicidal rate of 5% or less (almost no effect))
same,"H: barnyard grass, herbicidal effect rating",barnyard grass [5],0 (Herbicidal rate of 5% or less (almost no effect))
same,"Q: false cleavers, herbicidal effect rating",false cleavers [6],0 (Herbicidal rate of 5% or less (almost no effect))
same,"K: Italian ryegrass, herbicidal effect rating",Italian ryegrass [7],0 (Herbicidal rate of 5% or less (almost no effect))
same,"G: green foxtail, herbicidal effect rating",green foxtail [8],0 (Herbicidal rate of 5% or less (almost no effect))
same,"N: redroot pigweed, herbicidal effect rating",redroot pigweed [9],0 (Herbicidal rate of 5% or less (almost no effect))
same,"L: windgrass, herbicidal effect rating",windgrass [10],0 (Herbicidal rate of 5% or less (almost no effect))
same,herbicidal effect on H: barnyard grass,barnyard grass [11]; [29],0 (Herbicidal rate of 5% or less (almost no effect))
same,herbicidal effect on L: windgrass,windgrass [12]; [29],0 (Herbicidal rate of 5% or less (almost no effect))
same,herbicidal effect on Q: false cleavers,false cleavers [13]; [29],3 (Herbicidal rate of 40% or more and less than 70%)
same,herbicidal effect on J: blackgrass,blackgrass [14]; [29],0 (Herbicidal rate of 5% or less (almost no effect))
same,"J: blackgrass, herbicidal effect rating",blackgrass [15],0 (Herbicidal rate of 5% or less (almost no effect))
same,herbicidal effect on P: chickweed,chickweed [16]; [29],2 (Herbicidal rate of 20% or more and less than 40%)
same,"O: lambsquarters, herbicidal effect rating",lambsquarters [17],0 (Herbicidal rate of 5% or less (almost no effect))
same,herbicidal effect on R: persian speedwell,persian speedwell [18]; [29],5 (Herbicidal rate of 90% or more (almost completely withered))
same,"P: chickweed, herbicidal effect rating",chickweed [19],0 (Herbicidal rate of 5% or less (almost no effect))
same,herbicidal effect on D: Chinese sprangletop,Chinese sprangletop; [28],4 (Herbicidal rate of 70% or more and less than 90%)
same,herbicidal effect on M: velvetleaf,velvetleaf [20]; [29],3 (Herbicidal rate of 40% or more and less than 70%)
same,herbicidal effect on O: lambsquarters,lambsquarters [21]; [29],3 (Herbicidal rate of 40% or more and less than 70%)
same,herbicidal effect on H: barnyard grass,barnyard grass [22]; [28],4 (Herbicidal rate of 70% or more and less than 90%)
same,herbicidal effect on N: redroot pigweed,redroot pigweed [23]; [29],4 (Herbicidal rate of 70% or more and less than 90%)
same,"F: southern crabgrass, herbicidal effect rating",southern crabgrass [24],0 (Herbicidal rate of 5% or less (almost no effect))
same,"R: persian speedwell, herbicidal effect rating",persian speedwell [25],2 (Herbicidal rate of 20% or more and less than 40%)
same,herbicidal effect on I: wild oat,wild oat [26]; [29],0 (Herbicidal rate of 5% or less (almost no effect))
same,"I: wild oat, herbicidal effect rating",wild oat [27],0 (Herbicidal rate of 5% or less (almost no effect))
